According to patent US10370433B2, “Compositions and methods for diagnosis and treatment of cancer” (BIONTECH AG, priority 2015, dated 2019):
Positions of bridges follow the written chain, without caps; N, C: chain ends. Residues, ends and D or L forms follow the SMILES beside them.

Legend:
DPP IV = target: T1, DPP IV (Homo sapiens, UniProt P27487); assay type: binding
T1 construct: purchased R&D Systems

[1] = target: T2, recombinant human Seprase (rhuSeprase) (Homo sapiens, UniProt Q12884); assay: Surface plasmon resonance (Biacore T100) on immobilized rhuSeprase; assay type: binding
T2 construct: named pCEP4-IgKappa-huSeprase-coCHO_26-760aa-H6 and used for the generation of recombinant soluble human Seprase (rhuSeprase); mouse Ig kappa-chain V-J2-C secretion signal (N, cleaved yes); made in house; host or cells: FreeStyle CHO-S cells (transient transfection; purified from supernatant by Ni-chelate and SEC)
T2 sequence (Q12884 26-760): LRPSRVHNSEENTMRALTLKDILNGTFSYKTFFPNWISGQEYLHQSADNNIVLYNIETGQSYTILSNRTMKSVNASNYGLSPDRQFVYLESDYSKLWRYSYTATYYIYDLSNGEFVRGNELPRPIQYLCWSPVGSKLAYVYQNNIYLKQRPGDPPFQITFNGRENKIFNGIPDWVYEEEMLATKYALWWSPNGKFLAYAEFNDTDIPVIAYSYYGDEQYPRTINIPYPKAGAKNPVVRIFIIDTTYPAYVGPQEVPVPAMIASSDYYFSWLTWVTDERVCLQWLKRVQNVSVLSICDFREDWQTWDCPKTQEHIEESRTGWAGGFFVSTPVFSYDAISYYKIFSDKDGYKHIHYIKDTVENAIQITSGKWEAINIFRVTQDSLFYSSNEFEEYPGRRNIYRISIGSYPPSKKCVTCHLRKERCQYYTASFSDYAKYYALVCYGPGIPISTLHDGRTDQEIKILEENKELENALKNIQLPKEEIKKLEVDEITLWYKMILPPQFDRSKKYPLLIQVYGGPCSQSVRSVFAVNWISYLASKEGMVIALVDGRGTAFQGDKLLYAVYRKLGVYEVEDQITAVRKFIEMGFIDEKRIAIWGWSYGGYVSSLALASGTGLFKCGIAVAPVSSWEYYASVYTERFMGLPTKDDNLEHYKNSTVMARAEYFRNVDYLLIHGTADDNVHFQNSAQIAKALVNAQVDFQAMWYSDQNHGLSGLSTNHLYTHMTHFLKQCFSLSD

[2] = target: T3, murine Seprase expressing tumor cells (CAFs in CT26 tumor sections) (Mus musculus, UniProt P97321); assay: Staining of paraffin sections of CT26 tumors
T3 construct: from tissue; host or cells: paraffin sections of subcutaneous CT26 tumors grown in BALB/c mice (stromal CAFs)
T3 sequence (P97321 1-761): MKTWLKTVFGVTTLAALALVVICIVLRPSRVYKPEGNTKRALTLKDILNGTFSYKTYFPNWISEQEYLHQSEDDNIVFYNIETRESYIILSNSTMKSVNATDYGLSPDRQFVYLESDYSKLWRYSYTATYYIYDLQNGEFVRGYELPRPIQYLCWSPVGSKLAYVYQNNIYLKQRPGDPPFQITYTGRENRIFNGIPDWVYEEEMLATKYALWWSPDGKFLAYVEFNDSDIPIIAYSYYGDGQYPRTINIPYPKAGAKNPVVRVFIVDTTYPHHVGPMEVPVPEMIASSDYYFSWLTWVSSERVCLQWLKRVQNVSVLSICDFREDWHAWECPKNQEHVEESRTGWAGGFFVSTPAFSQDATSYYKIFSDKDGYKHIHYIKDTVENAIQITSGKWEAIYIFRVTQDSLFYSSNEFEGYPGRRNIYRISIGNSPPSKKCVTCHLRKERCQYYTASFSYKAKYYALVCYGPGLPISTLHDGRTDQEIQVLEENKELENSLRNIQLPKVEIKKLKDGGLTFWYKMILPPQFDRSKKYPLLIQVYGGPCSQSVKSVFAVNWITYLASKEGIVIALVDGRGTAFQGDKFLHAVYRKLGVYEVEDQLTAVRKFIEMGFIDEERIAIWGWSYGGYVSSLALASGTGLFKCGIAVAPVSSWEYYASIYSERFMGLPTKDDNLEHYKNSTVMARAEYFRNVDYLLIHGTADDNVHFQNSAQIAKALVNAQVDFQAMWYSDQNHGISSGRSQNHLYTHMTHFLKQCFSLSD

[3] = target: T4, murine homologue of Seprase (Mus musculus, UniProt P97321); assay type: cell-based
T4 construct: expressed in transfected cells; host or cells: CHO-K1
T4 sequence (P97321 1-761): T3 sequence (P97321 1-761)

human Seprase [4] = target: T5, human Seprase (Homo sapiens, UniProt Q12884)
T5 sequence (Q12884 26-760): T2 sequence (Q12884 26-760)

human Seprase [5] = target: T5, human Seprase; assay type: binding; parameters: named pCEP4-IgKappa-huSeprase-coCHO_26-760aa-H6 and used for the generation of recombinant soluble human Seprase (rhuSeprase); mouse Ig kappa-chain V-J2-C secretion signal (N, cleaved yes); made in house; host or cells: FreeStyle CHO-S cells (transient transfection; purified from supernatant by Ni-chelate and SEC)

T1 sequence (P27487 whole entry): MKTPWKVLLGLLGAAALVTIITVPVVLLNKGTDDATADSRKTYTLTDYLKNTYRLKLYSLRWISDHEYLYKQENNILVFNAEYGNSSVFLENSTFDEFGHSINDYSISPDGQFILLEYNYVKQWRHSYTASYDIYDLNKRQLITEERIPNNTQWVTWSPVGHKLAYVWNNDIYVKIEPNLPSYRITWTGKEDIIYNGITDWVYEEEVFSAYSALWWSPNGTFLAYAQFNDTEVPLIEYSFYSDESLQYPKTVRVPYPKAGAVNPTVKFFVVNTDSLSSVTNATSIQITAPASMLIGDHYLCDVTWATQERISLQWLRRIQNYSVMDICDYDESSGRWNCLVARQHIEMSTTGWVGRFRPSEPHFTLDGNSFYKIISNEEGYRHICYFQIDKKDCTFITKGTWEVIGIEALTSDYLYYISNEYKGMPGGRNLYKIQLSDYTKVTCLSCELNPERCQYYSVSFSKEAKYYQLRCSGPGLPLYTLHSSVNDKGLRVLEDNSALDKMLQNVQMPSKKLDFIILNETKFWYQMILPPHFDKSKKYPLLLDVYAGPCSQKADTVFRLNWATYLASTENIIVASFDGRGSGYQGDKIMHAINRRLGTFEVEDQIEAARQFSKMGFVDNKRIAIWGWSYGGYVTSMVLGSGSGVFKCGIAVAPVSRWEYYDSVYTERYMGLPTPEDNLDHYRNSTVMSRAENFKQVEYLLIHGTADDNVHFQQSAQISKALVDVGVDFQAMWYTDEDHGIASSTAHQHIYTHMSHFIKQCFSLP

CC[C@H](C)[C@@H]1NC(=O)[C@@H]2CSSC[C@H](NC(=O)[C@H](CCCCN)NC(=O)CN)C(=O)N3CCC[C@H]3C(=O)N[C@@H](Cc3ccc(O)cc3)C(=O)N[C@@H](CO)C(=O)N[C@@H](CC(N)=O)C(=O)N[C@@H](Cc3c[nH]c4ccccc34)C(=O)N[C@@H]([C@@H](C)O)C(=O)N3CCC[C@H]3C(=O)NCC(=O)N[C@@H](CCCNC(=N)N)C(=O)NCC(=O)N3CCC[C@H]3C(=O)N[C@@H](CC(=O)O)C(=O)N[C@H]3CSSC[C@H](NC1=O)C(=O)N[C@@H](CCCNC(=N)N)C(=O)NCC(=O)N[C@@H](CC(N)=O)C(=O)NCC(=O)N[C@@H](Cc1ccc(O)cc1)C(=O)N[C@H](C(=O)NCC(=O)O)CSSC[C@H](NC(=O)[C@H](CC(=O)O)NC(=O)[C@H](CO)NC(=O)[C@H](CC(=O)O)NC(=O)[C@H](CCCNC(=N)N)NC(=O)[C@H](CCCNC(=N)N)NC3=O)C(=O)N1CCC[C@H]1C(=O)NCC(=O)N[C@@H](CCCNC(=N)N)C(=O)N2 [MC-FA-010] (H-GKCPYSNWTPGRGPDCRRDSDCPGRCICRGNGYCG-OH; disulfide 3-26, 16-28, 22-34)
binding to DPP IV (DPP IV): very weak signal | kd [1]: 0.2006 s⁻¹ | kon ([1]; read-out: ka (1/Ms)): 1.53e+06 M⁻¹ s⁻¹ | binding to CT26 tumor section [2]: binds on CAFs | cross-reactivity with the murine homologue [3]: cross-reactive | IC50, binding affinity to human Seprase (human Seprase [4]): nanomolar range | EC50, binding affinity to human Seprase (human Seprase [5]): nanomolar range | binding to Seprase (human Seprase [5]): binds strongly and selectively
